Laboratory results: patent US20260337225A1, “SMALL PEPTIDE AND USE THEREOF IN MUCOSAL REPAIR” (FORREST BIO-PHARM (SHENZHEN) CO., LTD., priority 2022, published 2026)

Tested on: rat model of chronic gastric ulcer
Assay: Rat model of chronic gastric ulcer (anhydrous ethanol followed by aspirin)
Format: in vivo
Details: omeprazole 2.6 mg/kg twice daily for 3 days
Procedure: The function of the small peptides obtained in Embodiment 2 was validated in the present embodiment by using a rat model of chronic gastric ulcer.
Control group (model group): A rat model of chronic gastric ulcer model was constructed by intragastric administration of anhydrous ethanol (1 mL/200 g), followed by intragastric administration of 200 mg/kg aspirin 2 h later. The rats were administered with aspirin once daily for 4 days. At day 5, the rats were administered with an equal volume of saline.
Blank group: The rats were administered with an equal volume of saline.
Drug treatment groups: A rat model of chronic gastric ulcer was constructed as above-mentioned. At day 5, the rats were respectively administered with the rice polypeptide mixture (50 mg/kg), small peptide P1 (0.5 mg/kg), or small peptide P2 (0.5 mg/kg) twice daily for 3 days. On day 4, the rats were sacrificed and their gastric necropsy was performed.
Positive control group (omeprazole 2.6 mg/kg): A rat model of chronic gastric ulcer was constructed as above. At day 5, the rats were administered with omeprazole (2.6 mg/kg) twice daily for 3 days. On day 4, The rats were sacrificed and their gastric necropsy was performed.
Each group consisted of 10 rats. After 24 h of modeling, the rats were sacrificed to extract the gastric tissue, for measuring gastric pH, and observing changes in ulcer area via gastric tissue dissection. Liver and kidney tissues were collected for pathological section observation to assess drug safety.

Compound `COc1ccc2[nH]c([S+]([O-])Cc3ncc(C)c(OC)c3C)nc2c1` (centres unmarked) [omeprazole, reference compound] has a Ulcer index (10 rats, ratio of ulcer area to gastric mucosal tissue area, Control group 40.5 ± 5.3) of 7.2 ± 4.1% and a Ulcer inhibition rate (percentage reduction in ulcer area compared to the Control group) of 82.2%.
